Results taken from patent US11147272B2, “Pyridone compounds and agricultural and horticultural fungicides comprising the same as active ingredients” (MITSUI CHEMICALS AGRO, INC., priority 2017, dated 2021).

Key:
Puccinia recondita = assay: Test Example E: Brown rust on wheat; format: in vivo; conditions: for pest or weed control at 250 ppm: Puccinia recondita, topical, 250 ppm drug solution sprayed on test plant; for Test E control value class: Brown rust on wheat, class of control value
Alternaia brassicicola = assay: Test Example C: Alternaria sooty spot on cabbage; format: in vivo; conditions: for pest or weed control at 250 ppm: topical, 250 ppm drug solution sprayed on test plant; for Test C control value class: Alternaria sooty spot on cabbage, class of control value
Source text: Seeds of a test plant (cabbage variety: Shikidori) were planted and cultivated until the cotyledons extended.
<Control Value> Control value=100{1−(n/3)}

Plasmopara viticola = assay: Test Example G: Downy mildew on vine; conditions: for pest or weed control at 250 ppm: Plasmopara viticola, topical, 168 h, read-out: Test G control value; for Test G control value class: Downy mildew on vine (Neomuscat), 250 ppm spray, 2.5 ml/pot, assessed 7 to 10 days after inoculation
[1] = system: Colletotrichum orbiculare; assay: Test Example H: Anthracnose on cucumber; conditions: for pest or weed control at 250 ppm: Colletotrichum orbiculare, in Cucumis sativus, topical, 144 h, read-out: Test H control value; for Test H control value class: Anthracnose on cucumber (Sagami Hanjiro), 250 ppm spray, 2.5 ml/pot, assessed 6 to 10 days after inoculation
Phytophthora infestans = assay: whole plant or invertebrate; format: in vivo; conditions: for pest or weed control at 250 ppm: Phytophthora infestans, in Solanum lycopersicum, topical, read-out: Test F control value; for Test F control value class: Late blight on tomato, class of control value
[2] = system: Blumeria graminis f. sp. hordei; assay: Test Example D: Powdery mildew on barley; conditions: for pest or weed control at 250 ppm: Blumeria graminis, in Hordeum vulgare, topical, read-out: Test D control value; for Test D control value class: Powdery mildew on barley, class of control value
Botrytis cinerea = assay: Test Example B: Gray mold on tomato; conditions: for pest or weed control at 250 ppm: Botrytis cinerea, in Solanum lycopersicum, topical, read-out: Test B control value; for Test B control value class: Gray mold on tomato, class of control value
Magnaporthe grisea = assay: whole plant or invertebrate; format: in vivo; conditions: for pest or weed control at 250 ppm: Pyricularia oryzae, in Oryza sativa, read-out: Test A control value; for Test A control value class: Blast on rice, class of control value

SMILES	pest or weed control at 250 ppm (Puccinia recondita) [%]	pest or weed control at 250 ppm (Alternaia brassicicola) [%]	pest or weed control at 250 ppm (Plasmopara viticola) [%]	pest or weed control at 250 ppm [1] [%]	pest or weed control at 250 ppm (Phytophthora infestans) [%]	pest or weed control at 250 ppm [2] [%]	pest or weed control at 250 ppm (Botrytis cinerea) [%]	pest or weed control at 250 ppm (Magnaporthe grisea) [%]	Test E control value class (Puccinia recondita)	Test C control value class (Alternaia brassicicola)	Test G control value class (Plasmopara viticola)	Test H control value class [1]	Test F control value class (Phytophthora infestans)	Test D control value class [2]	Test B control value class (Botrytis cinerea)	Test A control value class (Magnaporthe grisea)
CCn1c(-c2c(F)cc(F)cc2F)c(C(O)C(F)(F)F)cc(Cl)c1=O (centres unmarked) [Compound No. 515, 3-chloro-1-ethyl-5-(2,2,2-trifluoro-1-hydroxyethyl)-6-(2,4,6-trifluorophenyl)pyridin-2(1H)-one]	> 50	< 50	> 50	> 50	< 50	< 50	> 50	> 50	–	–	–	–	–	–	–	–
CCn1c(-c2c(F)cc(F)cc2F)c(C(OC)C(F)(F)F)cc(Cl)c1=O (centres unmarked) [Compound No. 516, 3-Chloro-1-ethyl-5-(2,2,2-trifluoro-1-methoxyethyl)-6-(2,4,6-trifluorophenyl)pyridin-2(1H)-one]	> 50	> 50	> 50	> 50	< 50	> 50	> 50	> 50	–	–	–	–	–	–	–	–
CCn1c(-c2c(F)cc(OC)cc2F)c(C(OC)C(F)(F)F)cc(Cl)c1=O (centres unmarked) [Compound No. 518, 3-chloro-6-(2,6-difluoro-4-methoxyphenyl)-1-ethyl-5-(2,2,2-trifluoro-1-methoxyethyl)pyridin-2(1H)-one]	> 50	> 50	< 50	> 50	< 50	> 50	> 50	> 50	–	–	–	–	–	–	–	–
Cc1ccc(=O)n(C)c1-c1c(F)cccc1F [compound 3]	–	–	–	–	–	–	–	–	L (50% or less control value)	H (more than 50% control value)	L (50% or less control value)	L (50% or less control value)	L (50% or less control value)	L (50% or less control value)	L (50% or less control value)	L (50% or less control value)
Cc1cc(Cl)c(=O)n(C)c1-c1c(F)cccc1F [compound 4]	–	–	–	–	–	–	–	–	L (50% or less control value)	H (more than 50% control value)	L (50% or less control value)	L (50% or less control value)	H (more than 50% control value)	L (50% or less control value)	L (50% or less control value)	H (more than 50% control value)
CCn1c(-c2c(F)cccc2F)c(C(C)C)ccc1=O [compound 5]	–	–	–	–	–	–	–	–	H (more than 50% control value)	H (more than 50% control value)	L (50% or less control value)	H (more than 50% control value)	L (50% or less control value)	H (more than 50% control value)	H (more than 50% control value)	H (more than 50% control value)
CCn1c(-c2c(F)cccc2F)c(C(C)C)cc(Cl)c1=O [compound 6]	–	–	–	–	–	–	–	–	H (more than 50% control value)	H (more than 50% control value)	L (50% or less control value)	H (more than 50% control value)	L (50% or less control value)	H (more than 50% control value)	H (more than 50% control value)	H (more than 50% control value)
CCn1c(-c2c(F)cc(F)cc2F)c(C(C)C)cc(Br)c1=O [compound 9]	–	–	–	–	–	–	–	–	H (more than 50% control value)	H (more than 50% control value)	H (more than 50% control value)	H (more than 50% control value)	L (50% or less control value)	H (more than 50% control value)	H (more than 50% control value)	H (more than 50% control value)
CCn1c(-c2c(F)cc(OC)cc2F)c(C(C)C)cc(Br)c1=O [compound 12]	–	–	–	–	–	–	–	–	H (more than 50% control value)	H (more than 50% control value)	H (more than 50% control value)	H (more than 50% control value)	L (50% or less control value)	H (more than 50% control value)	H (more than 50% control value)	H (more than 50% control value)
CC(C)c1ccc(=O)n(C)c1-c1c(F)cc(F)cc1F [compound 13]	–	–	–	–	–	–	–	–	L (50% or less control value)	L (50% or less control value)	L (50% or less control value)	L (50% or less control value)	L (50% or less control value)	H (more than 50% control value)	H (more than 50% control value)	H (more than 50% control value)
COc1cc(F)c(-c2c(C(C)C)ccc(=O)n2C)c(F)c1 [compound 14]	–	–	–	–	–	–	–	–	H (more than 50% control value)	H (more than 50% control value)	L (50% or less control value)	H (more than 50% control value)	H (more than 50% control value)	H (more than 50% control value)	H (more than 50% control value)	H (more than 50% control value)
CC(C)c1cc(Cl)c(=O)n(C)c1-c1c(F)cc(F)cc1F [compound 15]	–	–	–	–	–	–	–	–	H (more than 50% control value)	H (more than 50% control value)	L (50% or less control value)	H (more than 50% control value)	L (50% or less control value)	H (more than 50% control value)	H (more than 50% control value)	H (more than 50% control value)
COc1cc(F)c(-c2c(C(C)C)cc(Cl)c(=O)n2C)c(F)c1 [compound 16]	–	–	–	–	–	–	–	–	H (more than 50% control value)	H (more than 50% control value)	H (more than 50% control value)	H (more than 50% control value)	L (50% or less control value)	H (more than 50% control value)	H (more than 50% control value)	H (more than 50% control value)
